Assay results from patent publication US7563791B2, “Pyrrolotriazine derivatives useful for treating hyper-proliferative disorders and diseases associated with angiogenesis” (Bayer Pharmaceuticals Corporation, priority 2004, dated 2009).
pIC50: −log10 of the molar value.

Assays:
Format in all cases: cell-based
[1] = tested on: histone 3 phosphorylation in colon carcinoma (HCT116); experiment: p-Histone3 assay: inhibition of histone 3 phosphorylation in HCT116; conditions: Homo sapiens, HCT-116, 24 h, HCT116, 24 hours compound treatment; for IC50: bound given in μM
Method: Compounds were assayed for the inhibition of histone 3 phosphorylation in colon carcinoma (HCT116). Briefly, 20,000 cells/well were seeded in a 96-well black-walled, poly-d-lysine plates in RPMI+10% FBS and incubated at 37° C. in 5% CO2 overnight. The following day, the cells were treated with compounds for 24 hours at 37° C. Following compound treatment; plates were centrifuged at 1000 rpm for 2 minutes and washed twice with 100 μl of cold sterile TBS. Cells were then fixed with cold 3.7% formaldehyde in TBS (4° C. for 1 hour) and then permeabolized with 0.1% Triton-X-100 in TBS (room temperature for 30 minutes). Plates were then washed with of 0.25% BSA-TBS and blocked with BSA solution for 1 hour at room temperature while shaking. The supernatant was removed and replaced with diluted primary antibody (anti-phospho-histone 3, serine 10, Cell Signaling) at 1:250 in 0.25% BSA-TBS and incubated overnight at 4° C. The plates were washed and treated with diluted secondary antibody (anti-rabbit Eu-labeled) at 1:10000 in 0.25% BSA-TBS (room temperature for 1 hour). The antibody solution was removed from each well and washed eight times. The wash buffer was replaced with 50 μl pre-warmed enhancement solution and mixed on the orbital shaker for 10 minutes. Fluorescence was detected with a Victor V Fluorescence Detector. The data are expressed as percent inhibition: % inhibition=100−((Signal with inhibitor-background)/(Signal without inhibitor-background))×100.

[2] = tested on: FGFR stimulated HUVEC proliferation; experiment: BRDU growth factor stimulated proliferation of HUVEC (bFGF stimulation); conditions: Homo sapiens, 72 h, 1.5 ng/ml bFGF, 3 days, BrdU incorporation
Method: (§1) BRDU Growth Factor Stimulated Proliferation of HUVEC
(§2) Exponentially growing human umbilical vein endothelial cells (HUVEC; Cat# CC-2519A, Cambrex, Walkersville, Md.) were seeded at two thousand cells/well into Collagen IV-coated 96 well plates (Cat#35-4429, Becton Dickinson, Bedford, Mass.) in assay media containing RPMI-1640 (Cat#11875-093, Gibco, Carlsbad, Calif.), 0.5% charcoal-stripped serum (Cat# SH30068.03, HyClone, Logan, Utah), and 1% N-2 supplement (Cat#17502-048, Gibco, Carlsbad, Calif.). Fours hours after incubating the plates at 37° C. in 5% CO2, the cells were treated with different concentrations of compound (diluted in assay media with a final DMSO concentration=0.1%) and then were immediately stimulated with 80 ng/ml of vascular endothelial growth factor (VEGF, Cat#100-20, PeproTech, Rocky Hill, N.J.) or 1.5 ng/ml of basic fibroblast growth factor (bFGF, Catt#100-18B, PeproTech, Rocky Hill, N.J.). Treated cells were incubated for 3 days at 37° C. in 5% CO2. DNA synthesis was measured via the incorporation of bromodeoxyuridine (BrdU) into newly synthesized DNA using the Amersham Cell Proliferation BioTrack ELISA system (Cat# RPN250, Amersham, Piscataway, N.J.). Diluted BrdU solution (20 μl of stock BrdU diluted 1:20 fold into assay media) was added to each well and incubation proceeded for 6 hours at 37° C. in 5% CO2. The media was removed and the cells were fixed according to the specifications of the Amersham assay kit for 30 minutes at room temperature. After removing the fixative, blocking buffer (supplied by Amersham kit; 200 μl/well) was added and the plates were stored at 4° C. overnight. The blocking buffer was aspirated and peroxidase-labeled anti-BrdU antibody (supplied by Amersham kit; 100 μl/well) was added and incubated for 3 hours at room temperature. The plates were washed three times with wash buffer (supplied by Amersham kit; 300 μl/well/wash). Immediately following the washes, 100 μl of the TMB-substrate was dispensed into each well and the plates were further incubated for 30 minutes at room temperature. The reaction was terminated by the addition of 25 μl of 1M H2SO4. Plates were read immediately at 450 nm using a SpectraMAX 250 spectrophotometer plate reader (Molecular Devices, Sunnyvale, Calif.). The software utilized was SoftMAX pro v.2.4.1.

[3] = tested on: VEGF stimulated Phospho-ERK in HUVEC; experiment: Growth factor stimulated p-ERK assay in HUVECs (VEGF stimulation, ERK1/2 Bioplex); conditions: Homo sapiens, compound 2 hrs, then 50 ng/ml VEGF 10 min; for inhibition at 0.1 µM: @ 100 nM
In short: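 HUVECs in serum-free RPMI 1640/0.1% BSA pretreated with compound 2 hrs, then stimulated 10 min with 50 ng/ml VEGF (or bFGF). Lysate phospho-ERK1/2 quantified by bead-based Bio-Plex immunoassay on Luminex.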

[4] = tested on: HCT116 cells; experiment: Tumor cell proliferation (Alamar Blue), HCT116; conditions: Homo sapiens, HCT-116, 72 h; for IC50: bounds given in μM
In short: (§3)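 Cells seeded at 3.0×10^3/well in RPMI with 10% FBS for 16 h, then treated with compound (added medium held 40 μM to 18 nM compound, 0.4% DMSO) for 72 h at 37 °C, 5% CO2. Viability by Alamar Blue, 3 h, fluorescence 544/590 nm. IC50 by linear regression of log concentration versus percent inhibition.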

[5] = tested on: MDA-MB-231 cells; experiment: Tumor cell proliferation (Alamar Blue), MDA-MB-231; conditions: Homo sapiens, MDA-MB-231, 72 h; for IC50: bounds given in μM
In short: as §3

[6] = tested on: VEGFR stimulated HUVEC proliferation; experiment: BRDU growth factor stimulated proliferation of HUVEC (VEGF stimulation); conditions: Homo sapiens, 72 h, 80 ng/ml VEGF, 3 days, BrdU incorporation
Method: as §1, §2

| SMILES | pIC50 [1] | IC50 [1] | pIC50 [2] | inhibition at 0.1 µM [3] | pIC50 [4] | pIC50 [5] | pIC50 [6] | inhibition at 1 µM ([3]; @ 1 μM) | IC50 [4] | IC50 [5] | IC50 ([2]; bound given in μM) |
| --- | --- | --- | --- | --- | --- | --- | --- | --- | --- | --- | --- |
| CCOC(=O)c1cn2ncnc(N)c2c1-c1ccc(NC(=O)Nc2ccccc2C(F)(F)F)cc1 [Example 7, ethyl 4-amino-5-{4-[({[2-(trifluoromethyl)phenyl]amino}carbonyl)amino]phenyl}pyrrolo[2,1-f][1,2,4]triazine-6-carboxylate] | < 6.30 | < 1 µM | – | – | – | – | – | – | – | – | – |
| CCOC(=O)c1cn2ncnc(N)c2c1-c1ccc(NC(=O)Nc2ccc3c(c2)OCO3)cc1 [Example 13, ethyl 4-amino-5-(4-{[(1,3-benzodioxol-5-ylamino)carbonyl]amino}phenyl)pyrrolo[2,1-f][1,2,4]triazine-6-carboxylate] | < 6.30 | < 1 µM | – | – | – | – | – | – | – | – | – |
| Nc1ncnn2cc(C(=O)NCC(F)(F)F)c(-c3ccc(NC(=O)Nc4cc(C(F)(F)F)ccc4F)cc3)c12 [Example 70, 4-amino-5-{4-[({[2-fluoro-5-(trifluoromethyl)phenyl]amino}carbonyl)amino]phenyl}-N-(2,2,2-trifluoroethyl)pyrrolo[2,1-f][1,2,4]triazine-6-carboxamide] | – | – | > 7.00 | > 50% | > 6.30 | > 6.30 | > 8.00 | – | – | – | – |
| Nc1ncnn2cc(C(=O)NCC(F)(F)F)c(-c3ccc(NC(=O)Nc4ccc(F)c(C(F)(F)F)c4)cc3)c12 [Example 88, 4-amino-5-{4-[({[4-fluoro-3-(trifluoromethyl)phenyl]amino}carbonyl)amino]phenyl}-N-(2,2,2-trifluoroethyl)pyrrolo[2,1-f][1,2,4]triazine-6-carboxamide] | > 6.30 | – | – | – | – | – | – | – | – | – | – |
| N#Cc1cn2ncnc(N)c2c1-c1ccc(NC(=O)Nc2cc(C(F)(F)F)ccc2F)cc1 [Example 99, N-[4-(4-amino-6-cyanopyrrolo[2,1-f][1,2,4]triazin-5-yl)phenyl]-N′-[2-fluoro-5-(trifluoromethyl)phenyl]urea] | – | – | > 7.00 | < 50% | – | < 6.30 | 6.30 to 7.00 | > 50% | 1.5 to 5 µM | < 1.5 µM | – |
| Nc1ncnn2cc(-c3cnco3)c(-c3ccc(NC(=O)Nc4ccc(F)c(C(F)(F)F)c4)cc3)c12 [Example 162, N-{4-[4-amino-6-(1,3-oxazol-5-yl)pyrrolo[2,1-f][1,2,4]triazin-5-yl]phenyl}-N′-[4-fluoro-3-(trifluoromethyl)phenyl]urea] | – | – | 6.30 to 7.00 | – | < 6.30 | – | 7.00 to 8.00 | – | < 1.5 µM | 1.5 to 5 µM | – |
| CCOCc1cn2ncnc(N)c2c1-c1ccc(NC(=O)Nc2cc(C(F)(F)F)ccn2)cc1 [Example 218, N-{4-[4-amino-6-(ethoxymethyl)pyrrolo[2,1-f][1,2,4]triazin-5-yl]phenyl}-N′-[4-(trifluoromethyl)pyridine-2-yl]urea] | – | – | 6.30 to 7.00 | – | – | – | > 8.00 | – | 5 to 10 µM | 5 to 10 µM | – |
| CC(=O)c1cn2ncnc(N)c2c1-c1ccc(NC(=O)Nc2cc(C(F)(F)F)ccc2F)cc1 [Example 223, N-[4-(6-acetyl-4-aminopyrrolo[2,1-f][1,2,4]triazin-5-yl)phenyl]-N′-[2-fluoro-5-(trifluoromethyl)phenyl]urea] | – | – | > 7.00 | – | < 6.30 | < 6.30 | 7.00 to 8.00 | – | < 1.5 µM | < 1.5 µM | – |
| N#CCc1cn2ncnc(N)c2c1-c1ccc(NC(=O)Nc2cc(C(F)(F)F)ccn2)cc1 [Example 226, N-{4-[4-amino-6-(cyanomethyl)pyrrolo[2,1-f][1,2,4]triazin-5-yl]phenyl}-N′-[4-(trifluoromethyl)pyridin-2-yl]urea] | – | – | 6.30 to 7.00 | – | – | – | > 8.00 | – | 1.5 to 5 µM | 1.5 to 5 µM | – |
| CC(=O)c1cn2ncnc(N)c2c1-c1ccc(NC(=O)Nc2cc(C(F)(F)F)ccn2)cc1 [Example 233, N-[4-(6-acetyl-4-aminopyrrolo[2,1-f][1,2,4]triazin-5-yl)phenyl]-N′-[4-(trifluoromethyl)pyridin-2-yl]urea] | – | – | 6.30 to 7.00 | – | – | – | 7.00 to 8.00 | – | 1.5 to 5 µM | 1.5 to 5 µM | – |
| Nc1ncnn2cc(-c3nc(CO)co3)c(-c3ccc(NC(=O)Nc4cc(C(F)(F)F)ccn4)cc3)c12 [Example 234, N-(4-{4-amino-6-[4-(hydroxymethyl)-1,3-oxazol-2-yl]pyrrolo[2,1-f][1,2,4]triazin-5-yl}phenyl)-N′-[4-(trifluoromethyl)pyridin-2-yl]urea] | – | – | 6.30 to 7.00 | – | – | – | 7.00 to 8.00 | – | 1.5 to 5 µM | 1.5 to 5 µM | – |
| CC(C)(C)c1cc(NC(=O)Nc2ccc(-c3c(CO)cn4ncnc(N)c34)cc2)n(-c2ccc(F)cc2)n1 [Example 239, N-{4-[4-amino-6-(hydroxymethyl)pyrrolo[2,1-f][1,2,4]triazin-5-yl]phenyl}-N′-[3-tert-butyl-1-(4-fluorophenyl)-1H-pyrazol-5-yl]urea] | – | – | 6.30 to 7.00 | – | < 6.30 | < 6.30 | 7.00 to 8.00 | – | < 1.5 µM | < 1.5 µM | – |
| N#CCc1cn2ncnc(N)c2c1-c1ccc(NC(=O)Nc2cc(C(F)(F)F)ccc2F)cc1 [Example 240, N-{4-[4-amino-6-(cyanomethyl)pyrrolo[2,1-f][1,2,4]triazin-5-yl]phenyl}-N′-[2-fluoro-5-(trifluoromethyl)phenyl]urea] | – | – | < 6.30 | – | – | – | 6.30 to 7.00 | – | 1.5 to 5 µM | 1.5 to 5 µM | < 1 µM |
| Nc1ncnn2cc(CO)c(-c3ccc(NC(=O)Nc4cc(C(F)(F)F)ccn4)c(F)c3)c12 [Example 243, N-{4-[4-amino-6-(hydroxymethyl)pyrrolo[2,1-f][1,2,4]triazin-5-yl]-2-fluorophenyl}-N′-[4-(trifluoromethyl)pyridin-2-yl]urea] | – | – | 6.30 to 7.00 | – | – | – | 7.00 to 8.00 | – | 1.5 to 5 µM | 1.5 to 5 µM | – |
| COCc1cn2ncnc(N)c2c1-c1ccc(NC(=O)Nc2cc(C(F)(F)F)ccn2)c(F)c1 [Example 247, N-{4-[4-amino-6-(methoxymethyl)pyrrolo[2,1-f][1,2,4]triazin-5-yl]-2-fluorophenyl}-N′-[4-(trifluoromethyl)pyridin-2-yl]urea] | – | – | 6.30 to 7.00 | – | – | – | 6.30 to 7.00 | – | 1.5 to 5 µM | 1.5 to 5 µM | – |
